Paper PMC8759726, “Click chemistry based synthesis, cytotoxic activity and molecular docking of novel triazole-thienopyrimidine hybrid glycosides targeting EGFR” (Journal of Enzyme Inhibition and Medicinal Chemistry, 2021)

Assays:
[1] = test system: HCT-116 (human colorectal carcinoma) cell line; experiment: MTT cytotoxicity assay, HCT-116; format: cell-based; conditions: 48 h incubation, mean ± SD
Experimental: (§1) HCT-116 (human colorectal carcinoma) and MCF-7 (human breast adenocarcinoma) cell lines were purchased from the American Type Culture Collection (Rockville, MD) and maintained in Dulbecco’s Modified Eagle’s Medium (DMEM) supplemented with 10% heat-inactivated foetal bovine serum (FBS), 100 U ml^−1 penicillin, and 100 U ml^−1 streptomycin. The cells were grown at 37 °C in a humidified atmosphere of 5% CO2.
(§2) Cytotoxicity activity against HCT-116 and MCF-7 was estimated by the 3-[4,5-dimethyl-2-thiazolyl)-2,5-diphenyl-2H-tetrazolium bromide (MTT) assay. This test is based on MTT cleavage by mitochondrial dehydrogenases from viable cells[43]^,[44]. Cells were placed in a 96-well sterile microplate (5 × 10^4 cells well^−1) and incubated at 37 °C in serum-free media containing dimethyl sulphoxide (DMSO) and either a series of various concentrations of each compound or doxorubicin (positive control) for 48 h before the MTT assay. After incubation, the media were removed and 40 µl MTT (2.5 mg ml^−1) was added to each well. Incubation was resumed for an additional 4 h. The purple formazan dye crystals were solubilised with 200 µl DMSO. Absorbance was measured at 590 nm in a Spectra Max Paradigm Multi-Mode microplate reader (Molecular Devices, LLC, San Jose, CA). Relative cell viability was expressed as the mean percentage of viable cells compared to the untreated control cells.
(§3) All experiments were conducted in triplicate and repeated on three different days. All values were reported as mean ± SD. The IC50 values were determined by SPSS Inc. probit analysis (IBM Corp., Armonk, NY).

[2] = test system: MCF-7 (human breast adenocarcinoma) cell line; experiment: MTT cytotoxicity assay, MCF-7; format: cell-based; conditions: 48 h incubation, mean ± SD
Experimental: as §1, §2, §3

[3] = target: mutant EGFR kinase type L858R (Homo sapiens, UniProt P00533, L858R); experiment: In vitro kinase inhibition assay (Kinase-Glo Max luminescence); conditions: IC50 (mean ± SEM) (µM) EGFR, mean of three values ± SEM
Chain of mutant EGFR kinase type L858R (P00533 25-1210 L858R): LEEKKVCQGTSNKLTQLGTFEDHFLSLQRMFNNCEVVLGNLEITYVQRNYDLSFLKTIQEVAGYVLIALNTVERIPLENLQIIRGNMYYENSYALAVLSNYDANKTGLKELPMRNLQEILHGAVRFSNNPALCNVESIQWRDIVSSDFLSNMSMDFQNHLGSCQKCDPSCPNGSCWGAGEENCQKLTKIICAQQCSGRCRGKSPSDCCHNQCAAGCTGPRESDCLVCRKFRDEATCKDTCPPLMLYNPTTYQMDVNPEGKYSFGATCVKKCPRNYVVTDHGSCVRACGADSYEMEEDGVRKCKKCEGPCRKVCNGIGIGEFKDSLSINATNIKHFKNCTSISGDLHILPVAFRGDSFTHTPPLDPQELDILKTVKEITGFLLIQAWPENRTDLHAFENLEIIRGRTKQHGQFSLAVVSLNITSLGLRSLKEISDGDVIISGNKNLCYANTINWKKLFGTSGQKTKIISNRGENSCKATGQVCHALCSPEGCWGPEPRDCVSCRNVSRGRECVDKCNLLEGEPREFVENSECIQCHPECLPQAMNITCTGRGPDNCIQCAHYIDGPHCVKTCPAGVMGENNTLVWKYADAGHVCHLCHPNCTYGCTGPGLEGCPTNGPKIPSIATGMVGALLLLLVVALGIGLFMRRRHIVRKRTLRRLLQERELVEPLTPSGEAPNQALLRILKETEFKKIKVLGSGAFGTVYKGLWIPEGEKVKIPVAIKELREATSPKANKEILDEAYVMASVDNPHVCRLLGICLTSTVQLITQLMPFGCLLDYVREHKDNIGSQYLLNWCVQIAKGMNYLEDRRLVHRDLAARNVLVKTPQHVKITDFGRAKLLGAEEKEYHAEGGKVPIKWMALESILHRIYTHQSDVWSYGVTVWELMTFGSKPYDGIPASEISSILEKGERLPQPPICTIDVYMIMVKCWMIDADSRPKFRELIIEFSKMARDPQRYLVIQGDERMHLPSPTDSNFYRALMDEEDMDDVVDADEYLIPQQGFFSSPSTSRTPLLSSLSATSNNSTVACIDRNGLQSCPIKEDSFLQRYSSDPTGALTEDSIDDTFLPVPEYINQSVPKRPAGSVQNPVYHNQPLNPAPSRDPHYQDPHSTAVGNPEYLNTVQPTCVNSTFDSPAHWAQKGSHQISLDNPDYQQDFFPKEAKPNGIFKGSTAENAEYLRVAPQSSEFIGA
Experimental: The master mixture (6 μl 5× kinase buffer + 1 μl ATP (500 μM)+1 μl 50× PTK substrate + 17 μl water) was prepared then, 25 μl to every well was added. Five microlitres of inhibitor solution of each well labelled as “Test Inhibitor” was added. However, for the “Positive Control” and “Blank”, 5 μl of the same solution without inhibitor (inhibitor buffer) was added. Three millilitres of 1× kinase buffer by mixing 600 μl of 5× kinase buffer with 2400 μl water was prepared. […] To the wells designated as “Blank”, 20 μl of 1× kinase buffer was added. EGFR enzyme on ice was thawed. Upon first thaw, briefly the tube containing enzyme was spun to recover full content of the tube. The amount of EGFR required for the assay and dilute enzyme to 1 ng/μl with 1× kinase buffer was calculated. Moreover, the remaining undiluted enzyme in aliquots was stored at –80 °C. The reaction was initiated by adding 20 μl of diluted EGFR enzyme to the wells designated “Positive Control” and “Test Inhibitor Control”, after that it was incubated at 30 °C for 40 min. After the 40 minutes’ reaction, 50 μl of Kinase-Glo Max reagent was added to each well and the plate was covered with aluminium foil and incubated at room temperature for 15 min. Luminescence was measured using the microplate reader.

melting point [°C]	IC50 [3] [µM]	SMILES	IC50 ([1]; Homo sapiens, HCT-116, 48 h) [µM]	IC50 ([2]; Homo sapiens, MCF7, 48 h) [µM]	IC50 [1] [µM]	IC50 [2] [µM]
181 to 182	0.5 ± 1	C#CCSc1nc2sc3c(c2c(=O)n1N)CCC3 [Compound 2, 3-Amino-2-(prop-2-yn-1-ylthio)-3,5,6,7-tetrahydro-4H-cyclopenta[4,5]thieno[2,3-d]pyrimidin-4-one]	8.6 ± 1.9	2.1 ± 0.3		
151 to 152		CC(=O)OC[C@H]1O[C@@H](n2cc(CSc3nc4sc5c(c4c(=O)n3N)CCC5)nn2)[C@H](OC(C)=O)[C@@H](OC(C)=O)[C@@H]1OC(C)=O [Compound 4, 3-Amino-2-(((1-(2,3,4,6-tetra-O-acetyl-β-D-glucopyranosyl)-1H-1,2,3-triazol-4-yl)methyl)thio)-3,5,6,7-tetrahydro-4H-cyclopenta [4,5]thieno[2,3-d]pyrimidin-4-one]				
155 to 156	0.13	CC(=O)OC1COC(n2cc(CSc3nc4sc5c(c4c(=O)n3N)CCC5)nn2)C(OC(C)=O)C1OC(C)=O [Compound 5, 3-Amino-2-(((1-(2,3,4-tri-O-acetyl-β-D-xyloopyranosyl)-1H-1,2,3-triazol-4-yl)methyl)thio)-3,5,6,7-tetrahydro-4H-cyclopenta[4,5]thieno[2,3-d]pyrimidin-4-one]	8.6 ± 0.9	2.9 ± 0.4		
189 to 190	0.17 ± 0.43	Nn1c(SCc2cn([C@@H]3OC[C@@H](O)[C@H](O)[C@H]3O)nn2)nc2sc3c(c2c1=O)CCC3 [Compound 7, 3-Amino-2-(((1-(β-D-xylopyranosyl)-1H-1,2,3-triazol-4-yl)methyl)thio)-3,5,6,7-tetrahydro-4H-cyclopenta[4,5]thieno[2,3-d]pyrimidin-4-one]	8.7 ± 1.5	4.3 ± 0.8		
159 to 160		CC(=O)OCC1OC(OCc2cn(CCSc3nc4sc5c(c4c(=O)n3N)CCC5)nn2)C(OC(C)=O)C(OC(C)=O)C1OC(C)=O [Compound 13, 3-Amino-2-(ethylylthio)-{2-[4-({[2,3,4,6-tetra-O-acetyl-β-D-glucopyranosyl]oxy}methyl)-1H-1,2,3-triazol-1-yl]ethoxy}-3,5,6,7-tetrahydro-4H-cyclopenta[4,5]thieno[2,3-d] pyrimidin-4-one]	8.7 ± 1.6	4.2 ± 0.5		
156 to 157	0.013	CC(=O)OCC1OC(OCc2cn(CCSc3nc4sc5c(c4c(=O)n3N)CCC5)nn2)C(OC(C)=O)C(OC(C)=O)C1OC(C)=O (stereo not drawn) [Compound 14]			8.8 ± 1.1	4.5 ± 0.7
153 to 154	0.017	CC(=O)OC1COC(OCc2cn(CCSc3nc4sc5c(c4c(=O)n3N)CCC5)nn2)C(OC(C)=O)C1OC(C)=O (stereo not drawn) [Compound 15]	8.9 ± 1.1	5 ± 0.9		
163 to 164		CC(=O)OCC1OC(OCc2cn(CCCCSc3nc4sc5c(c4c(=O)n3N)CCC5)nn2)C(OC(C)=O)C(OC(C)=O)C1OC(C)=O (stereo not drawn) [Compound 16]	8.1 ± 0.8	5.3 ± 0.8		
159 to 160	0.02	CC(=O)OCC1OC(OCc2cn(CCCCSc3nc4sc5c(c4c(=O)n3N)CCC5)nn2)C(OC(C)=O)C(OC(C)=O)C1OC(C)=O (stereo not drawn) [Compound 17]			8.4 ± 1.1	5.2 ± 0.9
		COc1cccc2c1C(=O)c1c(O)c3c(c(O)c1C2=O)C[C@@](O)(C(=O)CO)C[C@@H]3O[C@H]1C[C@H](N)[C@H](O)[C@H](C)O1 [Doxorubicin, reference compound]	7.8 ± 0.7	6.7 ± 0.9		
